Blank lines part the entries; values can stand above or below the compound they belong to.
Test system: OVCAR-8 complex spheroid, growth inhibition
Assay: Anticancer human tumor OVCAR-8 cell line growth inhibition [Asc];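 further: spheroids exposed to agents for 7 days before readout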;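 on viability, T/C: percent viability relative to DMSO vehicle wells taken as 100%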
Conditions: for IC50: curve of first compound; for viability, T/C: stronger effect = lower value
In short: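 Stromal components (HUVEC and hMSC) are co-assembled with the cancer cells into multicellular spheroids. Drugs are then added singly or paired, at concentrations falling by half-log increments from a clinically achievable maximum, capped at 10 microM without known Cmax.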

[1] = second compound 0.0316 µM, first compound 0.0316 µM
[2] = second compound 0.0316 µM, first compound 0.1 µM
[3] = second compound 0.0316 µM, first compound 0.316 µM
[4] = second compound 0.0316 µM, first compound 1 µM
[5] = second compound 0.0316 µM, first compound 3.16 µM
[6] = second compound 0.0316 µM, first compound 10 µM
[7] = second compound 0.1 µM, first compound 0.0316 µM
[8] = second compound 0.1 µM, first compound 0.1 µM
[9] = second compound 0.1 µM, first compound 0.316 µM
[10] = second compound 0.1 µM, first compound 1 µM
[11] = second compound 0.1 µM, first compound 3.16 µM
[12] = second compound 0.1 µM, first compound 10 µM
[13] = second compound 0.316 µM, first compound 0.0316 µM
[14] = second compound 0.316 µM, first compound 0.1 µM
[15] = second compound 0.316 µM, first compound 0.316 µM
[16] = second compound 0.316 µM, first compound 1 µM
[17] = second compound 0.316 µM, first compound 3.16 µM
[18] = second compound 0.316 µM, first compound 10 µM
[19] = second compound 1 µM, first compound 0.0316 µM
[20] = second compound 1 µM, first compound 0.1 µM
[21] = second compound 1 µM, first compound 0.316 µM
[22] = second compound 1 µM, first compound 1 µM
[23] = second compound 1 µM, first compound 3.16 µM
[24] = second compound 1 µM, first compound 10 µM
[25] = second compound 3.16 µM, first compound 0.0316 µM
[26] = second compound 3.16 µM, first compound 0.1 µM
[27] = second compound 3.16 µM, first compound 0.316 µM
[28] = second compound 3.16 µM, first compound 1 µM
[29] = second compound 3.16 µM, first compound 3.16 µM
[30] = second compound 3.16 µM, first compound 10 µM
[31] = second compound 10 µM, first compound 0.0316 µM
[32] = second compound 10 µM, first compound 0.1 µM
[33] = second compound 10 µM, first compound 0.316 µM
[34] = second compound 10 µM, first compound 1 µM
[35] = second compound 10 µM, first compound 3.16 µM
[36] = second compound 10 µM, first compound 10 µM

IC50 (second compound 0.0316 µM): 2.33 µM | IC50 (second compound 0.1 µM): 2.24 µM | IC50 (second compound 0.316 µM): 2.32 µM | IC50 (second compound 1 µM): 2.51 µM | IC50 (second compound 3.16 µM): 2.25 µM | IC50 (second compound 10 µM): 2.15 µM
Compound: C=C(F)C(=O)N1CCN(c2nc(OCC3CCCN3C)nc3c2CCN(c2cccc4cccc(Cl)c24)C3)CC1CC#N (stereo unspecified) + Cc1c(S(C)(=O)=O)c(-c2cc(F)cc(N3CCN(c4ccc(NS(=O)(=O)c5ccc(NC(CCN6CCC(C(=O)OCCCP(=O)(O)O)CC6)CSc6ccccc6)c(S(=O)(=O)C(F)(F)F)c5)cc4)CC3)c2)c(-c2ccc(Cl)cc2)n1C(C)C
viability, T/C [1]: 102% | viability, T/C [2]: 92.4% | viability, T/C [3]: 91.8% | viability, T/C [4]: 102% | viability, T/C [5]: 33% | viability, T/C [6]: 2.02% | viability, T/C [7]: 95.6% | viability, T/C [8]: 94.3% | viability, T/C [9]: 97.7% | viability, T/C [10]: 111% | viability, T/C [11]: 28.5% | viability, T/C [12]: 0.39% | viability, T/C [13]: 90.3% | viability, T/C [14]: 99.5% | viability, T/C [15]: 98.7% | viability, T/C [16]: 113% | viability, T/C [17]: 31.5% | viability, T/C [18]: 0.28% | viability, T/C [19]: 92.1% | viability, T/C [20]: 88.2% | viability, T/C [21]: 96% | viability, T/C [22]: 114% | viability, T/C [23]: 38.1% | viability, T/C [24]: 1.17% | viability, T/C [25]: 102% | viability, T/C [26]: 111% | viability, T/C [27]: 93.2% | viability, T/C [28]: 128% | viability, T/C [29]: 25.5% | viability, T/C [30]: 0.35% | viability, T/C [31]: 96.4% | viability, T/C [32]: 73.3% | viability, T/C [33]: 92.4% | viability, T/C [34]: 121% | viability, T/C [35]: 26.9% | viability, T/C [36]: 1.06%

IC50 (second compound 0.0316 µM): > 10 µM | IC50 (second compound 0.1 µM): > 10 µM | IC50 (second compound 0.316 µM): > 10 µM | IC50 (second compound 1 µM): > 10 µM | IC50 (second compound 3.16 µM): > 10 µM | IC50 (second compound 10 µM): > 10 µM
Compound: C=CC(=O)N1CCN(c2nc(=O)n(-c3c(C)ccnc3C(C)C)c3nc(-c4c(O)cccc4F)c(F)cc23)C(C)C1 (stereo unspecified) + Cc1c(S(C)(=O)=O)c(-c2cc(F)cc(N3CCN(c4ccc(NS(=O)(=O)c5ccc(NC(CCN6CCC(C(=O)OCCCP(=O)(O)O)CC6)CSc6ccccc6)c(S(=O)(=O)C(F)(F)F)c5)cc4)CC3)c2)c(-c2ccc(Cl)cc2)n1C(C)C
viability, T/C [1]: 109% | viability, T/C [2]: 113% | viability, T/C [3]: 93.3% | viability, T/C [4]: 95% | viability, T/C [5]: 106% | viability, T/C [6]: 122% | viability, T/C [7]: 101% | viability, T/C [8]: 96.2% | viability, T/C [9]: 94.5% | viability, T/C [10]: 104% | viability, T/C [11]: 93.3% | viability, T/C [12]: 118% | viability, T/C [13]: 97.5% | viability, T/C [14]: 92.3% | viability, T/C [15]: 106% | viability, T/C [16]: 93.6% | viability, T/C [17]: 99% | viability, T/C [18]: 123% | viability, T/C [19]: 104% | viability, T/C [20]: 112% | viability, T/C [21]: 114% | viability, T/C [22]: 92.9% | viability, T/C [23]: 92.8% | viability, T/C [24]: 109% | viability, T/C [25]: 102% | viability, T/C [26]: 98.3% | viability, T/C [27]: 89.7% | viability, T/C [28]: 104% | viability, T/C [29]: 93.7% | viability, T/C [30]: 105% | viability, T/C [31]: 101% | viability, T/C [32]: 91.5% | viability, T/C [33]: 81.9% | viability, T/C [34]: 91.6% | viability, T/C [35]: 99.5% | viability, T/C [36]: 101%

IC50 (second compound 0.0316 µM): > 3 µM | IC50 (second compound 0.1 µM): > 3 µM | IC50 (second compound 0.316 µM): > 3 µM | IC50 (second compound 1 µM): > 3 µM | IC50 (second compound 3.16 µM): > 3 µM | IC50 (second compound 10 µM): > 3 µM
Compound: CCN1C(C(=O)NC23CCC(C(=O)O)(CC2)CC3)C(c2cccc(Cl)c2F)C2(C(=O)Nc3cc(Cl)ccc32)C12CCCCC2 (stereo unspecified) + Cc1c(S(C)(=O)=O)c(-c2cc(F)cc(N3CCN(c4ccc(NS(=O)(=O)c5ccc(NC(CCN6CCC(C(=O)OCCCP(=O)(O)O)CC6)CSc6ccccc6)c(S(=O)(=O)C(F)(F)F)c5)cc4)CC3)c2)c(-c2ccc(Cl)cc2)n1C(C)C
viability, T/C (second compound 0.0316 µM, first compound 0.00949 µM): 92.4% | viability, T/C (second compound 0.0316 µM, first compound 0.03 µM): 99.1% | viability, T/C (second compound 0.0316 µM, first compound 0.0949 µM): 99.5% | viability, T/C (second compound 0.0316 µM, first compound 0.3 µM): 90% | viability, T/C (second compound 0.0316 µM, first compound 0.949 µM): 107% | viability, T/C (second compound 0.0316 µM, first compound 3 µM): 109% | viability, T/C (second compound 0.1 µM, first compound 0.00949 µM): 90.1% | viability, T/C (second compound 0.1 µM, first compound 0.03 µM): 95.8% | viability, T/C (second compound 0.1 µM, first compound 0.0949 µM): 94.8% | viability, T/C (second compound 0.1 µM, first compound 0.3 µM): 89.8% | viability, T/C (second compound 0.1 µM, first compound 0.949 µM): 101% | viability, T/C (second compound 0.1 µM, first compound 3 µM): 105% | viability, T/C (second compound 0.316 µM, first compound 0.00949 µM): 108% | viability, T/C (second compound 0.316 µM, first compound 0.03 µM): 99.9% | viability, T/C (second compound 0.316 µM, first compound 0.0949 µM): 94.8% | viability, T/C (second compound 0.316 µM, first compound 0.3 µM): 105% | viability, T/C (second compound 0.316 µM, first compound 0.949 µM): 102% | viability, T/C (second compound 0.316 µM, first compound 3 µM): 125% | viability, T/C (second compound 1 µM, first compound 0.00949 µM): 109% | viability, T/C (second compound 1 µM, first compound 0.03 µM): 93.1% | viability, T/C (second compound 1 µM, first compound 0.0949 µM): 93.5% | viability, T/C (second compound 1 µM, first compound 0.3 µM): 106% | viability, T/C (second compound 1 µM, first compound 0.949 µM): 112% | viability, T/C (second compound 1 µM, first compound 3 µM): 144% | viability, T/C (second compound 3.16 µM, first compound 0.00949 µM): 118% | viability, T/C (second compound 3.16 µM, first compound 0.03 µM): 95.2% | viability, T/C (second compound 3.16 µM, first compound 0.0949 µM): 88.3% | viability, T/C (second compound 3.16 µM, first compound 0.3 µM): 101% | viability, T/C (second compound 3.16 µM, first compound 0.949 µM): 98.8% | viability, T/C (second compound 3.16 µM, first compound 3 µM): 144% | viability, T/C (second compound 10 µM, first compound 0.00949 µM): 113% | viability, T/C (second compound 10 µM, first compound 0.03 µM): 104% | viability, T/C (second compound 10 µM, first compound 0.0949 µM): 106% | viability, T/C (second compound 10 µM, first compound 0.3 µM): 86.7% | viability, T/C (second compound 10 µM, first compound 0.949 µM): 132% | viability, T/C (second compound 10 µM, first compound 3 µM): 146%
